The results in this text go back to PMC9112550, “Optimization of the antimicrobial peptide Bac7 by deep mutational scanning” (BMC Biology, 2022).

As usually defined, the MIC is the lowest concentration that inhibits growth of the organism.

Molecules are shown by their SMILES. Converted amounts (≈) assume the structure as drawn.

In test [1] the test system is E. coli TOP10. Briefly: Membrane damage assay in MHB II (GFP loss, PI uptake). In kind it is cell-based. The conditions noted are these: at its MIC.
In test [2] the test system is E. coli TOP10. The test is classed as cell-based. The conditions noted are these: data not shown. As for the experimental part: Bacterial cells were grown in cation-adjusted Mueller Hinton Broth (MHB II) overnight to stationary phase. The cultures were then supplemented with 200 g l^−1 glycerol, aliquoted, and frozen at −80°C. […] The purified peptides were thawed and the concentration was determined by RP-HPLC as described before. The peptides were diluted with sterile water to 4-fold the desired assays starting concentration and to a final volume of 50 μl. […] The first well of each MIC dilution series was filled with 20 μl of 2-fold concentrated MHB II, wells 2–11 with 20 μl of MHB II, and well 12 with 40 μl MHB II (sterility control). Next, 20 μl of the peptide dilution was added to the first well, mixed, and a log2-serial dilution was performed from wells 1 to 10 (20 μl transfer volume). Well 11 served as growth control (i.e., no peptide added). In the last step, 20 μl of the bacterial cell suspension was added to wells 1–11 either using the pipetting robot (E. coli TOP10, BW25113, BW25113 ΔsbmA, and ATCC 25922) or by manual pipetting (E. coli clinical isolates). The plates were sealed airtight and incubated for 18 h without shaking at 37°C before reading the OD using an Infinite 200 PRO plate reader (Tecan, Männedorf, CH). […] All MIC experiments were determined in technical replicate.

For the molecule `CC[C@H](C)[C@H](NC(=O)CN)C(=O)NCC(=O)N[C@@H](C)C(=O)N[C@H](C(=O)N[C@@H](CC(C)C)C(=O)N[C@@H](CCCCN)C(=O)N[C@H](C(=O)N[C@@H](CC(C)C)C(=O)N[C@H](C(=O)N[C@H](C(=O)NCC(=O)N[C@@H](CC(C)C)C(=O)N1CCC[C@H]1C(=O)N[C@@H](C)C(=O)N[C@@H](CC(C)C)C(=O)N[C@H](C(=O)N[C@@H](CO)C(=O)N[C@@H](Cc1c[nH]c2ccccc12)C(=O)N[C@H](C(=O)N[C@@H](CCCCN)C(=O)N[C@@H](CCCNC(=N)N)C(=O)N[C@@H](CCCCN)C(=O)N[C@@H](CCCNC(=N)N)C(=O)N[C@@H](CCC(N)=O)C(=O)N[C@@H](CCC(N)=O)C(N)=O)[C@@H](C)CC)[C@@H](C)CC)[C@@H](C)O)[C@@H](C)O)C(C)C)C(C)C` [melittin], in the test with E. coli TOP10 [1], the “PI uptake and loss of GFP” value was “rapidly induced PI uptake and loss of GFP”. This molecule also came in with an MIC with E. coli TOP10 [2] of 5.0 µM (≈ 14.2 µg/mL).
